Source: ChEMBL document CHEMBL5532635, “The role of natural anti-parasitic guided development of synthetic drugs for leishmaniasis” (Eur J Med Chem, 2023)
pEC50, pIC50: −log10 of the molar value. ≈ marks a conversion by molar mass, not a printed value. Blank lines part the entries; values can stand above or below the molecule they belong to.

Experiments:
Leishmania donovani [1] = assay: Antileishmanial activity against Leishmania donovani promastigotes at 50 uM; assay type: functional
Leishmania donovani [2] = assay: Antileishmanial activity against Leishmania donovani promastigotes at 25 uM; assay type: functional
Leishmania donovani [3] = assay: Immunosuppressive activity in Leishmania donovani assessed as inhibition of PGE2 production; assay type: functional, organism-based
Leishmania donovani [4] = assay: Antileishmanial activity against Leishmania donovani amastigotes assessed as reduction in microbial growth; assay type: functional, organism-based
Leishmania amazonensis [5] = assay: Antileishmanial activity against Leishmania amazonensis promastigotes assessed as reduction in parasite viability after 48 hrs by MTT assay; assay type: functional, organism-based
Leishmania amazonensis [6] = assay: Antileishmanial activity against Leishmania amazonensis MHOM/BR/1989/166MJO promastigotes infected in mouse macrophage assessed as parasite growth inhibition measured after 72 hrs by MTT assay; assay type: functional, organism-based
J774.A1 = assay: Cytotoxicity against mouse J774.A1 cells assessed as reduction in cell viability incubated for 24 hrs by MTT assay; assay type: functional
Leishmania amazonensis [7] = assay: Antileishmanial activity against Leishmania amazonensis MHOM/BR/1989/166MJO promastigotes assessed as reduction in […] growth; assay type: functional, organism-based
Leishmania tropica [8] = assay: Antileishmanial activity against Leishmania tropica amastigotes incubated for 24 hrs measured by alamar blue staining based fluorescence analysis; assay type: functional, organism-based
Leishmania tropica [9] = assay: Antileishmanial activity against Leishmania tropica promastigotes incubated for 24 hrs measured by alamar blue staining based fluorescence analysis; assay type: functional, organism-based
Leishmania major [10] = assay: Antileishmanial activity against Leishmania major IR-173 amastigotes assessed as parasite growth inhibition incubated for 72 hrs by resazurin dye based assay; assay type: functional, organism-based; conditions: IR-173, 72 h
Leishmania amazonensis [11] = assay: Antileishmanial activity against Leishmania amazonensis promastigotes assessed as inhibition of parasite growth; assay type: functional, organism-based
Leishmania infantum [12] = assay: Antileishmanial activity against Leishmania infantum MON-1 promastigotes assessed as reduction in parasite viability measured after 48 hrs by MTT assay; assay type: functional, organism-based; conditions: MON-1, 48 h
Leishmania infantum [13] = assay: Antileishmanial activity against Leishmania infantum MHOM/MA/67/ITMAP263 promastigotes expressing red-shifted luciferase gene infected in mouse J774 cells incubated for 24 hrs by microplate luminometer analysis; assay type: functional, organism-based; conditions: MHOM/MA/67/ITMAP263, J774, 24 h
Leishmania donovani [14] = assay: Antileishmanial activity against Leishmania donovani amastigotes assessed as parasite growth inhibition incubated for 72 hrs by MTS assay; assay type: functional, organism-based
Leishmania infantum [15] = assay: Antileishmanial activity against Leishmania infantum MHOM/BR/70/BH46 promastigotes assessed as inhibition of parasite growth incubated for 72 hrs by Neubauer chamber based analysis; assay type: functional, organism-based; conditions: MHOM/BR/70/BH46, 72 h
Leishmania tropica [16] = assay: Antileishmanial activity against Leishmania tropica promastigotes assessed as inhibition of parasite growth; assay type: functional, organism-based
Leishmania infantum [17] = assay: Antileishmanial activity against Leishmania infantum amastigotes infected in human THP-1 cells assessed as reduction in parasite growth incubated for 72 hrs by high content imaging analysis; assay type: functional, organism-based; conditions: THP-1, 72 h
Leishmania donovani [18] = assay: Antileishmanial activity against Leishmania donovani BHU575 promastigotes assessed as cell viability by MTT assay; assay type: functional, organism-based
Leishmania amazonensis [19] = assay: Antileishmanial activity against Leishmania amazonensis promastigotes assessed as reduction in parasite viability measured after 48 hrs by alamar blue analysis; assay type: functional, organism-based
Leishmania amazonensis [20] = assay: Antileishmanial activity against Leishmania amazonensis promastigotes assessed as inhibition of parasite growth at 10 uM relative to control; assay type: functional; parameters: scale not given: the % may be the effect or the level left
Leishmania major [21] = assay: Antileishmanial activity against Leishmania major promastigote assessed as inhibition of parasite growth; assay type: functional, organism-based
Leishmania amazonensis [22] = assay: Antileishmanial activity against Leishmania amazonensis promastigotes assessed as reduction in parasite viability after 72 hrs by CCK-8 assay; assay type: functional, organism-based
Leishmania amazonensis [23] = assay: Antileishmanial activity against Leishmania amazonensis promastigotes; assay type: functional, organism-based
Leishmania infantum [24] = assay: Antileishmanial activity against Leishmania infantum promastigote assessed as reduction in parasite growth after 72 hrs by MTT assay; assay type: functional, organism-based
Leishmania donovani [25] = assay: Antileishmanial activity against Leishmania donovani promastigotes; assay type: functional, organism-based
Leishmania donovani [26] = assay: Antileishmanial activity against Leishmania donovani amastigotes; assay type: functional, organism-based
[27] = Inhibition of recombinant Leishmania mexicana Trypanothione reductase

Structure (SMILES): COc1cc(/C=C2/Oc3cc(O)ccc3C2=O)cc(OC)c1
Activity (Leishmania donovani [1]): 109% | Activity (Leishmania donovani [2]): 106%

pIC50 (Leishmania donovani [3]): 5.23
Structure (SMILES): COc1ccc2c(c1)O/C(=C/c1cc(O)cc(O)c1)C2=O
Activity (Leishmania donovani [1]): 108% | Activity (Leishmania donovani [2]): 105%

Structure (SMILES): NC(=S)N/N=C(/C=C/c1cccnc1)c1cccc(NC(=O)Nc2ccc(Cl)cc2)c1
pIC50 (Leishmania donovani [4]): 5.42

Structure (SMILES): COC(=O)C1=CCC[C@@H]2[C@@](C)(CCc3ccco3)[C@H](C(=O)OC)CC[C@@]12C
pIC50 (Leishmania amazonensis [5]): 7.57

Structure (SMILES): COc1cc(C(=O)/C=C/c2ccc([N+](=O)[O-])cc2)c(C(C)=O)c2c(OC)cccc12
pIC50 (Leishmania amazonensis [6]): 4.73 | CC50 (J774.A1): 373 µM | pIC50 (Leishmania amazonensis [7]): 5.48

Structure (SMILES): Nc1ccc(C(=O)N/N=C2\C(=O)N(CC(O)COc3cc(=O)oc4ccccc34)c3ccccc32)cc1 (stereo not given)
pIC50 (Leishmania tropica [8]): 5.55 | pIC50 (Leishmania tropica [9]): 5.79

Structure (SMILES): Cc1ccc2c(NCCCCCNC(=O)c3cccc(/C=C/C(=O)c4ccc(C)o4)c3)ccnc2c1
pIC50 (Leishmania major [10]): 6.34

Structure (SMILES): COC(=O)C1=CCC[C@@H]2[C@@](C)(CCc3ccco3)[C@H](C(=O)O)CC[C@@]12C
pIC50 (Leishmania amazonensis [11]): 6.96

pEC50 (Leishmania infantum [13]): 6.11
Structure (SMILES): COc1cc(OC)c(C(=O)/C=C/c2cccc(C)c2)c([N+](=O)[O-])c1
pIC50 (Leishmania infantum [12]): 4.13

Structure (SMILES): C/C1=C\C(=O)OC(C(C)(C)C)CCCC(O)CCCC(O)CCCC(O)CCCC(O)CCCC(O)CCCC(O)CCCC(O)CCCCCC(O)C1 (stereo not given)
pIC50 (Leishmania donovani [14]): 5.33

Structure (SMILES): Cc1cc(Br)cc2c(/C=N\NC(=S)Nc3ccccc3)c[nH]c12
pIC50 (Leishmania infantum [15]): 5.25

Structure (SMILES): CC1=CCC[C@H]2[C@](C)(Cc3cc(O)ccc3O)[C@@H](C)CC[C@]12C [AVAROL]
pIC50 (Leishmania tropica [16]): 5.15 | pIC50 (Leishmania infantum [17]): 5.50 | pIC50 (Leishmania donovani [18]): 5.13

Structure (SMILES): CC[C@H]1C[C@@H]2CN3CCc4c([nH]c5ccccc45)[C@](C(=O)OC)(C2)[C@H]13 [CORONARIDINE]
IC50 (Leishmania amazonensis [19]): 12.5 µg/mL (≈ 36.9 µM) | Activity (Leishmania amazonensis [20]): 97%

Structure (SMILES): COc1c2ccoc2nc2c(OC)cccc12 [GAMMA-FAGARINE]
pIC50 (Leishmania major [21]): < 4.13

pIC50 (Leishmania amazonensis [23]): 5.15
Structure (SMILES): CC1(C)C=Cc2c(ccc3c2OCC2c4cc5c(cc4OC32)OCO5)O1 (stereo not given) [LEIOCARPIN]
pIC50 (Leishmania amazonensis [22]): 4.94 | pIC50 (Leishmania infantum [24]): 4.81

pEC50 (Leishmania donovani [25]): 5.34 | pEC50 (Leishmania donovani [26]): 6.48
Structure (SMILES): O=C1/C(=C/c2ccc(O)c(O)c2)Oc2cc(O)ccc21 [SULFURETIN]

pIC50 [27]: 5.15
Structure (SMILES): C[C@H]1[C@H](C)CC[C@]2(C(=O)O)CC[C@]3(C)C(=CC[C@@H]4[C@@]5(C)CC[C@H](O)C(C)(C)[C@@H]5CC[C@]43C)[C@H]12 [URSOLIC ACID]
